Measured values as given in publication PMC7293037, “Fuse to defuse: a self-limiting ribonuclease-ring nuclease fusion for type III CRISPR defence” (Nucleic Acids Research, 2020).
pKd: −log10 of the molar value. Where two headings read alike, the source gives them in different places.

How the values were obtained:
Csx1-Crn2 [1] = target: T1, Csx1-Crn2; experiment: EMSA with radiolabelled cA4; format: binding, Marinitoga piezophila; conditions: pH 7.5, 2 mM MgCl2, 25 °C; Crn2 ring nuclease site (CARF site also present); labelled compound; read-out: apparent KD
T1 construct: full length, 563 aa natural fusion; synthetic gene codon-optimised, expressed in E. coli C43 (DE3); N-terminal His tag removed by TEV; V177L in the cloned gene; dimer

Csx1-Crn2 [2] = target: T1, Csx1-Crn2; experiment: EMSA with radiolabelled cA4; format: binding, Marinitoga piezophila; conditions: pH 7.5, 2 mM MgCl2, 25 °C; Crn2 ring nuclease site (CARF site also present); labelled compound; no obvious gel shift, value judged from cA4 cleavage at high protein concentration; discussion gives > 1; read-out: apparent KD

Compound: Nc1ncnc2c1ncn2[C@@H]1O[C@@H]2COP(=O)(O)O[C@H]3[C@@H](O)[C@H](n4cnc5c(N)ncnc54)O[C@@H]3COP(=O)(O)O[C@H]3[C@@H](O)[C@H](n4cnc5c(N)ncnc54)O[C@@H]3COP(=O)(O)O[C@H]3[C@@H](O)[C@H](n4cnc5c(N)ncnc54)O[C@@H]3COP(=O)(O)O[C@H]2[C@H]1O [cA4]
- pKd (Csx1-Crn2 [1]): ~7.70
- pKd (Csx1-Crn2 [2]): ~6.00
